Measured values from US8697739B2, “Bicyclic acetyl-CoA carboxylase inhibitors and uses thereof” (Novartis AG, priority 2010, dated 2014).
pIC50: −log10 of the molar value. Read-outs that look alike come from different tables or passages of the source.

Biological target: T1, human acetyl-CoA carboxylase 2 (ACC2) (Homo sapiens, UniProt O00763)
T1 construct: The cDNA encoding amino acids 144 to 2458 of human acetyl-CoA carboxylase 2; made in house; host or cells: Sf9 insect cells (baculovirus, pFastBac1)
Test: Acetyl-CoA carboxylase enzyme assay (malonyl-CoA formation by LC/MS/MS)
Format: biochemical
In short: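 Malonyl-CoA formation was read by LC/MS/MS MRM against a [13C3]-malonyl-CoA internal standard, after acetic acid quench. The enzyme was baculovirus/Sf9-expressed human ACC2 residues 144–2458, given 15 minutes room-temperature compound preincubation in HEPES pH 7.5 buffer with MgCl2, citrate and DTT. Substrate solution held 50 μM acetyl-CoA, 120 μM ATP and 2 mM KHCO3.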

[1] = recombinant human ACC2 (aa 144-2458), read-out: IC50 ACC2

T1 sequence (O00763 144-2458): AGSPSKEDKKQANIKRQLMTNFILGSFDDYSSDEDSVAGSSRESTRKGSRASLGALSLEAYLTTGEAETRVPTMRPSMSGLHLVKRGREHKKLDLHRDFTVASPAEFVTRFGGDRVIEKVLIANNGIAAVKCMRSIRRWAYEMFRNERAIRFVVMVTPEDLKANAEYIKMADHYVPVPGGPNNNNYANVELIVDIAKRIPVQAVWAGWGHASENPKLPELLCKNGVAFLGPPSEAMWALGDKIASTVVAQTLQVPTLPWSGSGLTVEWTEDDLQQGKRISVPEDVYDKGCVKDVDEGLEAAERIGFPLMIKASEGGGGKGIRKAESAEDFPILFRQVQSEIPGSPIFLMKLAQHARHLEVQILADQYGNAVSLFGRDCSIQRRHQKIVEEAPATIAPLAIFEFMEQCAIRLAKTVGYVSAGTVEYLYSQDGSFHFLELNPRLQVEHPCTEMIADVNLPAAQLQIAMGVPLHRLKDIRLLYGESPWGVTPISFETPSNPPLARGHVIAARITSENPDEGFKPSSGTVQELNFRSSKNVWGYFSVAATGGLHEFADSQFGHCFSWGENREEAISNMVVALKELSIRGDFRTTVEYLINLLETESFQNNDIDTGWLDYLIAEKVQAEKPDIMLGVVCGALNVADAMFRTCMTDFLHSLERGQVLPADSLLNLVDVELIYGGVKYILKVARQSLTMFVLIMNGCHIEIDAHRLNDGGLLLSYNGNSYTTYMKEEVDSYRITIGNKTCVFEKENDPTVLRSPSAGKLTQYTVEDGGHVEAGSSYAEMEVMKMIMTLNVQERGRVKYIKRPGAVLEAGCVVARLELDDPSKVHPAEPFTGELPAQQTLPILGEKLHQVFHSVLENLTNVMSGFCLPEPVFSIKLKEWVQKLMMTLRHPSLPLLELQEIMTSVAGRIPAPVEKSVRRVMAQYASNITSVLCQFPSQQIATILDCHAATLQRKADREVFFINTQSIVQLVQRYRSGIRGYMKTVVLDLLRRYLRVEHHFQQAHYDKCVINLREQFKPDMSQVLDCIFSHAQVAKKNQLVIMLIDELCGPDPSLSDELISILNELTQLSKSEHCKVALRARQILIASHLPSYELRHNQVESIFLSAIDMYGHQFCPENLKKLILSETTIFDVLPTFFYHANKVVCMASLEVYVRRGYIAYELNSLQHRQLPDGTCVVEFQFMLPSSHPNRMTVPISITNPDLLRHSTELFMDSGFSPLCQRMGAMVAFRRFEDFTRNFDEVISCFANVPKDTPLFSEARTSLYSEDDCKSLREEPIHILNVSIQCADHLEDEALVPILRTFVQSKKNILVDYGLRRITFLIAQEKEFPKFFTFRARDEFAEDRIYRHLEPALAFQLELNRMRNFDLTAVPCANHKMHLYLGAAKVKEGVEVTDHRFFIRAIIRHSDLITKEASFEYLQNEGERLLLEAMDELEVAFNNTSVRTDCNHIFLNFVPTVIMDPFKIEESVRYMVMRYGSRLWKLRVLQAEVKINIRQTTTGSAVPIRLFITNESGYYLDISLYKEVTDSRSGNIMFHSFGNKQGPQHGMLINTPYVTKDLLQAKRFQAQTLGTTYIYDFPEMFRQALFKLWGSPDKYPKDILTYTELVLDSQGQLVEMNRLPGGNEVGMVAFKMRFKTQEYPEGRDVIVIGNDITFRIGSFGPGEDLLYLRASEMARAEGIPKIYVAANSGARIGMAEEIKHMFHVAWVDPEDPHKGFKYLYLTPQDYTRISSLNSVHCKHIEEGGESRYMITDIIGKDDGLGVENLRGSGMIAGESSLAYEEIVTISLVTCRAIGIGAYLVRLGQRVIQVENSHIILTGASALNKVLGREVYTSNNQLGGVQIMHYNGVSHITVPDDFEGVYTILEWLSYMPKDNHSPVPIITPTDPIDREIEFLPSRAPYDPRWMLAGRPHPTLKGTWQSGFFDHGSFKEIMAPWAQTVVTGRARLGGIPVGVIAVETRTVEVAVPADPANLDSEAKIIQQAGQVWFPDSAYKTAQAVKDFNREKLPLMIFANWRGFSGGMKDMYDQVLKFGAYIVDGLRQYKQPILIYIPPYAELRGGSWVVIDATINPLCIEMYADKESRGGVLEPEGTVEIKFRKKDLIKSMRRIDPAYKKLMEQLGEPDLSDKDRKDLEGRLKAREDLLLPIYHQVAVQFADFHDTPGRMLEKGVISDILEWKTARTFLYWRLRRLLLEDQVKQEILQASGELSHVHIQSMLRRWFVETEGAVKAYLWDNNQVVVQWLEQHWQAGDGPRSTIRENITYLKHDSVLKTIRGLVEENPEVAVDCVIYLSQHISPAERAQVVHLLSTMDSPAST

Cc1nc2cc(S(=O)(=O)N[C@H]3CC[C@H](C(=O)N[C@H](C)c4ccccc4)CC3)ccc2[nH]1 [Example 614, (1r,4R)-4-(2-methyl-1H-benzo[d]imidazole-5-sulfonamido)-N-((R)-1-phenylethyl)cyclohexanecarboxamide]
pIC50 [1]: 6.85

Cc1nc2cc(S(=O)(=O)N[C@H]3CC[C@H](c4nnc(C(C)(C)C)o4)CC3)ccc2[nH]1 [Example 615, N-((1r,4r)-4-(5-tert-butyl-1,3,4-oxadiazol-2-yl)cyclohexyl)-2-methyl-1H-benzo[d]imidazole-5-sulfonamide]
pIC50 [1]: 4.94

O=C([C@H]1CC[C@H](NS(=O)(=O)c2ccc3[nH]c(-c4ccccc4)nc3c2)CC1)N1CCc2ccccc2C1 [Example 616, 2-phenyl-N-((1r,4r)-4-(1,2,3,4-tetrahydroisoquinoline-2-carbonyl)cyclohexyl)-1H-benzo[d]imidazole-5-sulfonamide]
pIC50 [1]: 6.43

O=C([C@H]1CC[C@H](NS(=O)(=O)c2ccc3[nH]c(-c4ccccc4)nc3c2)CC1)N1CCN(c2ccccc2)CC1 [Example 617, 2-phenyl-N-((1r,4r)-4-(4-phenylpiperazine-1-carbonyl)cyclohexyl)-1H-benzo[d]imidazole-5-sulfonamide]
pIC50 [1]: 6.00

CN(C(=O)[C@H]1CC[C@H](NS(=O)(=O)c2ccc3[nH]c(-c4ccccc4)nc3c2)CC1)C1CCCCC1 [Example 618, (1r,4r)-N-cyclohexyl-N-methyl-4-(2-phenyl-1H-benzo[d]imidazole-5-sulfonamido)cyclohexanecarboxamide]
pIC50 [1]: 7.10

CN(Cc1ccccc1)C(=O)[C@H]1CC[C@H](NS(=O)(=O)c2ccc3[nH]c(-c4ccccc4)nc3c2)CC1 [Example 619, (1r,4r)-N-benzyl-N-methyl-4-(2-phenyl-1H-benzo[d]imidazole-5-sulfonamido)cyclohexanecarboxamide]
pIC50 [1]: 6.25

CC1CN(C(=O)[C@H]2CC[C@H](NS(=O)(=O)c3ccc4[nH]c(-c5ccccc5)nc4c3)CC2)CC(C)O1 (some centres unmarked) [Example 620, N-((1r,4r)-4-(2,6-dimethylmorpholine-4-carbonyl)cyclohexyl)-2-phenyl-1H-benzo[d]imidazole-5-sulfonamide]
pIC50 [1]: 7.24

O=C(NCCO)[C@H]1CC[C@H](NS(=O)(=O)c2ccc3[nH]c(-c4ccccc4)nc3c2)CC1 [Example 621, (1r,4r)-N-(2-hydroxyethyl)-4-(2-phenyl-1H-benzo[d]imidazole-5-sulfonamido)cyclohexanecarboxamide]
pIC50 [1]: 5.82

O=C([C@H]1CC[C@H](NS(=O)(=O)c2ccc3[nH]c(-c4ccccc4)nc3c2)CC1)N1CCC2(CC1)OCCCO2 [Example 622, N-((1r,4r)-4-(1,5-dioxa-9-azaspiro[5.5]undecane-9-carbonyl)cyclohexyl)-2-phenyl-1H-benzo[d]imidazole-5-sulfonamide]
pIC50 (IC50 ACC2, recombinant human ACC2 (aa 144-2458)): 6.39

O=C([C@H]1CC[C@H](NS(=O)(=O)c2ccc3[nH]c(-c4ccccc4)nc3c2)CC1)N1Cc2ccccc2C1 [Example 623, N-((1r,4r)-4-(isoindoline-2-carbonyl)cyclohexyl)-2-phenyl-1H-benzo[d]imidazole-5-sulfonamide]
pIC50 [1]: 6.25

O=C([C@H]1CC[C@H](NS(=O)(=O)c2ccc3[nH]c(-c4ccccc4)nc3c2)CC1)N1CCC2CCCCC2C1 (some centres unmarked) [Example 624, N-((1r-4r)-4-(decahydroisoquinoline-2-carbonyl)cyclohexyl)-2-phenyl-1H-benzo[d]imidazole-5-sulfonamide]
pIC50 [1]: 6.61

CCCN(CC1CC1)C(=O)[C@H]1CC[C@H](NS(=O)(=O)c2ccc3[nH]c(-c4ccccc4)nc3c2)CC1 [Example 625, (1r,4r)-N-(cyclopropylmethyl)-4-(2-phenyl-1H-benzo[d]imidole-5-sulfonamido)-N-propylcyclohexanecarboxamide]
pIC50 [1]: 7.10

CC1CC(C)CN(C(=O)[C@H]2CC[C@H](NS(=O)(=O)c3ccc4[nH]c(-c5ccccc5)nc4c3)CC2)C1 (some centres unmarked) [Example 626, N-((1r,4r)-4-(3,5-dimethylpiperidine-1-carbonyl)cyclohexyl)-2-phenyl-1H-benzo[d]imidazole-5-sulfonamide]
pIC50 [1]: 7.11

O=C([C@H]1CC[C@H](NS(=O)(=O)c2ccc3[nH]c(-c4ccccc4)nc3c2)CC1)N1CCN(CC2CCCCC2)CC1 [Example 627, N-((1r,4r)-4-(4-(cyclohexylmethyl)piperazine-1-carbonyl)cyclohexyl)-2-phenyl-1H-benzo[d]imidazole-5-sulfonamide]
pIC50 [1]: 5.69

O=C(NCCc1ccccc1)[C@H]1CC[C@H](NS(=O)(=O)c2ccc3[nH]c(-c4ccccc4)nc3c2)CC1 [Example 628, (1r,4r)-N-phenethyl-4-(2-phenyl-1H-benzo[d]imidazole-5-sulfonamido)cyclohexanecarboxamide]
pIC50 [1]: 6.39

CC(C)CNC(=O)[C@H]1CC[C@H](NS(=O)(=O)c2ccc3[nH]c(-c4ccccc4)nc3c2)CC1 [Example 629, (1r,4r)-N-isobutyl-4-(2-phenyl-1H-benzo[d]imidazole-5-sulfonamido)cyclohexanecarboxamide]
pIC50 [1]: 5.76

CC(C)CCNC(=O)[C@H]1CC[C@H](NS(=O)(=O)c2ccc3[nH]c(-c4ccccc4)nc3c2)CC1 [Example 630, (1r,4r)-N-isopentyl-4-(2-phenyl-1H-benzo[d]imidazole-5-sulfonamido)cyclohexanecarboxamide]
pIC50 [1]: 6.11

CN(C)CCNC(=O)[C@H]1CC[C@H](NS(=O)(=O)c2ccc3[nH]c(-c4ccccc4)nc3c2)CC1 [Example 631, (1r,4r)-N-(2-(dimethylamino)ethyl)-4-(2-phenyl-1H-benzo[d]imidazole-5-sulfonamido)cyclohexanecarboxamide]
pIC50 [1]: 4.99

O=C(NC1CCCCC1)[C@H]1CC[C@H](NS(=O)(=O)c2ccc3[nH]c(-c4ccccc4)nc3c2)CC1 [Example 632, (1r,4r)-N-cyclohexyl-4-(2-phenyl-1H-benzo[d]imidazole-5-sulfonamido)cyclohexanecarboxamide]
pIC50 [1]: 6.84

CCCCNC(=O)[C@H]1CC[C@H](NS(=O)(=O)c2ccc3[nH]c(-c4ccccc4)nc3c2)CC1 [Example 633, (1r,4r)-N-butyl-4-(2-phenyl-1H-benzo[d]imidazole-5-sulfonamido)cyclohexanecarboxamide]
pIC50 [1]: 5.93

COCCNC(=O)[C@H]1CC[C@H](NS(=O)(=O)c2ccc3[nH]c(-c4ccccc4)nc3c2)CC1 [Example 634, (1r,4r)-N-(2-methoxyethyl)-4-(2-phenyl-1H-benzo[d]imidazole-5-sulfonamido)cyclohexanecarboxamide]
pIC50 [1]: 5.77

O=C(NC1CC1)[C@H]1CC[C@H](NS(=O)(=O)c2ccc3[nH]c(-c4ccccc4)nc3c2)CC1 [Example 635, (1r,4r)-N-cyclopropyl-4-(2-phenyl-1H-benzo[d]imidazole-5-sulfonamido)cyclohexanecarboxamide]
pIC50 [1]: 6.59

O=C(NC1CCCc2ccccc21)[C@H]1CC[C@H](NS(=O)(=O)c2ccc3[nH]c(-c4ccccc4)nc3c2)CC1 (some centres unmarked) [Example 636, (1r,4r)-4-(2-phenyl-1H-benzo[d]imidazole-5-sulfonamido)-N-(1,2,3,4-tetrahydronaphthalen-1-yl)cyclohexanecarboxamide]
pIC50 [1]: 5.77

O=C(NCC1CC1)[C@H]1CC[C@H](NS(=O)(=O)c2ccc3[nH]c(-c4ccccc4)nc3c2)CC1 [Example 637, (1r,4r)-N-(cyclopropylmethyl)-4-(2-phenyl-1H-benzo[d]imidazole-5-sulfonamido)cyclohexanecarboxamide]
pIC50 [1]: 6.43

O=C(NC1Cc2ccccc2C1)[C@H]1CC[C@H](NS(=O)(=O)c2ccc3[nH]c(-c4ccccc4)nc3c2)CC1 [Example 638, (1r,4r)-N-(2,3-dihydro-1H-inden-2-yl)-4-(2-phenyl-1H-benzo[d]imidazole-5-sulfonamido)cyclohexanecarboxamide]
pIC50 [1]: 6.90

O=C(NCC1CCCCC1)[C@H]1CC[C@H](NS(=O)(=O)c2ccc3[nH]c(-c4ccccc4)nc3c2)CC1 [Example 639, (1r,4r)-N-(cyclohexylmethyl)-4-(2-phenyl-1H-benzo[d]imidazole-5-sulfonamido)cyclohexanecarboxamide]
pIC50 [1]: 6.45

O=C(NCc1cccnc1)[C@H]1CC[C@H](NS(=O)(=O)c2ccc3[nH]c(-c4ccccc4)nc3c2)CC1 [Example 640, (1r,4r)-4-(2-phenyl-1H-benzo[d]imidazole-5-sulfonamido)-N-(pyridin-3-ylmethyl)cyclohexanecarboxamide]
pIC50 [1]: 6.02

O=C(NCC1CCCCCC1)[C@H]1CC[C@H](NS(=O)(=O)c2ccc3[nH]c(-c4ccccc4)nc3c2)CC1 [Example 641, (1r,4r)-N-(cycloheptylmethyl)-4-(2-phenyl-1H-benzo[d]imidazole-5-sulfonamido)cyclohexanecarboxamide]
pIC50 [1]: 6.56

COCCCNC(=O)[C@H]1CC[C@H](NS(=O)(=O)c2ccc3[nH]c(-c4ccccc4)nc3c2)CC1 [Example 642, (1r,4r)-N-(3-methoxypropyl)-4-(2-phenyl-1H-benzo[d]imidazole-5-sulfonamido)cyclohexanecarboxamide]
pIC50 [1]: 5.87

O=C(NCCc1cccnc1)[C@H]1CC[C@H](NS(=O)(=O)c2ccc3[nH]c(-c4ccccc4)nc3c2)CC1 [Example 643, (1r,4r)-4-(2-phenyl-1H-benzo[d]imidazole-5-sulfonamido)-N-(2-(pyridin-3-yl)ethyl)cyclohexanecarboxamide]
pIC50 [1]: 6.55

O=C(NCc1cc(F)cc(F)c1)[C@H]1CC[C@H](NS(=O)(=O)c2ccc3[nH]c(-c4ccccc4)nc3c2)CC1 [Example 644, (1r,4r)-N-(3,5-difluorobenzyl)-4-(2-phenyl-1H-benzo[d]imidazole-5-sulfonamido)cyclohexanecarboxamide]
pIC50 [1]: 6.23

O=C(Nc1cccc2ccccc12)[C@H]1CC[C@H](NS(=O)(=O)c2ccc3[nH]c(-c4ccccc4)nc3c2)CC1 [Example 645, (1r,4r)-N-(naphthalen-1-yl)-4-(2-phenyl-1H-benzo[d]imidazole-5-sulfonamido)cyclohexanecarboxamide]
pIC50 [1]: 5.97
